Test results published in patent US20200339953A1, “HEMATOPOIETIC STEM AND PROGENITOR CELL THERAPY” (priority 2010, published 2020).
Entries after “also recorded” stand apart in the source; their conditions may differ.

Key:
[1] = tested on: Whole cord blood cells or CD34^+ cells; assay: Colony Forming Unit-Cell assay (CFU-C); format: cell-based, human
Experimental: Colony Forming Unit-Cell assays (CFU-C) were performed using a methyl cellulose assay kit, MethoCult® GF H4034 (Stem Cell Technologies, Vancouver, CA). Whole cord blood cells or CD34^+ cells obtained from Stem Cell Technologies (Vancouver, Canada) were aliquoted equally in Eppendorf tubes and treated ex vivo at a range of 16,16-dimethyl PGE2 concentrations (10 μM to 100 μM) or DMSO control; temperatures (4° C., 22° C., or 37° C.) for 120 minutes in LMD/5% HSA media. After treatment, the cells were washed in LMD/5% HSA media and resuspended in Iscove's Media containing 2% Fetal Bovine Serum (FBS) (Stem Cell Technologies). Cells were then loaded into a MethoCult® assay tube, mixed, and plated in 35 mm tissue culture plates according to the manufacturer's instructions. Unless otherwise mentioned, the equivalent of 10,000 WCB cells and 250 CD34^+ cells were loaded into each plate.

CD34^+ cells = assay: Whole genome expression arrays (Affymetrix GeneChip); format: cell-based, human
Experimental: Human umbilical cord blood and pre-isolated CD34^+ cells from human umbilical cord blood were purchased from Stem Cell Technologies Inc. (Vancouver, BC, Canada). Cells were incubated in either low molecular weight dextran with 5% human serum albumin media (LMD/5% HSA) or Stem Span media (Stem Cells Technology Inc.) for ex vivo treatment with 16,16-dimethyl PGE2. Total RNA was isolated from incubated cells using a Pico Pure RNA Isolation Kit (Molecular Devices, Sunnyvale, Calif.).
Biotinylated amplified RNA (aRNA) was prepared using the standard protocol for MessageAmp II aRNA Amplification Kit (Applied Biosystems/Ambion, Austin, Tex.) and the optional Second Round Amplification; the copy RNA (cRNA) was transcribed into biotin labeled aRNA using MessageAmp II Biotin Enhanced Kit (Applied Biosystems/Ambion, Austin, Tex.) according to the manufacturer's instructions. Biotin labeled aRNA was purified and fragmented according to the Applied Biosystems protocols. 20 μg of fragmented aRNA was hybridized to Human Genome U133 Plus 2.0 GeneChips (Affymetrix Inc., Santa Clara, Calif.) for 16 hrs at 45° C.
The GeneChips were washed and stained in the Affymetrix Fluidics Station 450 and scanned using the Affymetrix GeneChip Scanner 3000 7G. The image data were analyzed using Affymetrix Expression Console software and default analysis settings. GeneChip expression data were normalized by log scale robust multi-array analysis (RMA) and visualized in Spotfire for Genomics 3.1 (Tibco Spotfire, Palo Alto, Calif.). Pathway analysis was performed in MetaCore. (GeneGo, St. Joseph, Mich.).
GeneChip technology was used to determine the effects of time (incubation for 5, 15, 20, 30, 40, 60, 80, 100, 120, 180, or 240 minutes), temperature (incubation at 4° C., 25° C., or 37° C.), and final 16,16-dimethyl PGE2 concentration (0.1 μm, 1 μM, 10 μM, 50 μM, or 100 μM) on cellular gene expression.
Gene expression profiles were analyzed for CD34^+ cells incubated with 10 μM 16,16-dimethyl PGE2 at 37° C. for 5, 15, 30, 60, or 120 minutes. For incubation (e.g., treatment) periods less than 120 minutes, the cells were washed in media to remove the 16,16-dimethyl PGE2 and then the cells were incubated for the remaining period in media to allow time for changes in gene expression to take place (See FIG. 5).

[2] = tested on: human CD34^+ cord blood (hCD34^+ CB) cells; assay: In vitro chemotaxis assay towards SDF1α; format: cell-based; conditions: 10 μM, 4 hours, 37° C.; 50 ng/ml SDF1α vs DMSO or 0 ng/ml SDF1α
Experimental: Chemotaxis assays were performed using 96-well chemotaxis chambers, […] pore size polycarbonate membrane (Corning Inc., Corning, N.Y.) in accordance with manufacturer's instructions. Briefly, human CD34^+ cord blood (hCD34^+ CB) cells were obtained from All Cells and were thawed according to manufacturer's instruction. The cells were then treated for 4 hours at 37° C. with 16,16-dimethyl PGE2 or DMSO control at a concentration of 10 μM in StemSpan media (Stem Cell Technology, Vancouver, Canada). The cells were then washed by centrifugation (300 g for 10 minutes) and resuspended in transwell assay buffer (Phenol Red Free RPMI media (Mediatech), 0.5% lipid free BSA (Sigma-Aldrich) at a concentration of 40,000-60,000 cells/75 ul. Seventy-five μl of cell suspension was added to the upper chamber of the plate, while 235 μl of transwell assay media containing 0 or 50 ng/ml SDF1α (R&D system, Minneapolis, Minn.) was added to the bottom well. Total cell number in the lower well was obtained by flow cytometry, using 7AAD (BD Biosciences) to exclude dead cells, after 4 hours of incubation at 37° C., 5% CO2. […] Percent migration was calculated by dividing the number of the cells in the lower well by the total cell input multiplied by 100. Samples were analyzed in triplicate, the data was then averaged for statistical analysis.

For CCCCC(C)(C)[C@H](O)/C=C/[C@H]1[C@H](O)CC(=O)[C@@H]1C/C=C\CCCC(=O)O [16,16-dimethyl PGE2], the “CFU-C colony formation (FIG. 19D)” value ([1]; CD34+ cells treated at 37° C. vs DMSO or 4° C.) was “increase in CFU-C colony formation”, the “ability to form colony forming units (FIG. 11)” value ([1]; CD34+ cells, 10 μM, 120 minutes, 37° C. vs vehicle or 4° C.) was “does not decrease the ability of the cells to form colony forming units” and the “proliferative potential (CFU-C)” value ([1]; whole cord blood cells or CD34+ cells, high temperatures, relatively long incubation periods vs other conditions) was “higher proliferative potential”. The “signature gene expression changes after very short incubation” value (CD34^+ cells; 10 μM, 37° C., 5-15 minutes, assessed after 120 minutes total) was “minimal gene expression changes”, the “incubation time after which gene expression changes were apparent” value (CD34^+ cells; 10 μM, 37° C., assessed after 120 minutes total) was 30 min and the genes downregulated (CD34^+ cells; 10 μM, 120 minutes, 37° C.) was 243 genes. The “genes modulated at a statistically significant level, total” value (CD34^+ cells; 10 μM, 120 minutes, 37° C.) was 608 genes, the genes upregulated (CD34^+ cells; 10 μM, 120 minutes, 37° C.) was 365 genes and the “fold increase in CXCR4 expression” value (CD34^+ cells; 10 μM, 120 minutes, 37° C., relative to DMSO/vehicle treated control) was 18 fold. For the same compound, the “fold increase in CREM expression (FIG. 4)” value (CD34^+ cells; 10 μM, vs vehicle treated CD34+ cells) was 8 fold, the “Fold change (increases) AREG” value (CD34^+ cells; Amphiregulin, CD34+ cells, 10 μM, 120 minutes, 37° C. vs DMSO) was 23.32 fold and the “gene expression changes at 100 μM at 4° C. and 25° C. compared with 10 μM at 37° C.” value (CD34^+ cells; CD34+ cells) was “smaller gene expression changes”. For the same compound, the “gene expression associated with apoptosis or cell death” value (CD34^+ cells; CD34+ cells incubated at 37° C.) was “no increase in gene expression associated with apoptosis or cell death; also recorded: no increase in gene expression of apopotosis or cell death associated genes”, the “concentration at which the full gene expression signature was reproduced” value (CD34^+ cells; CD34+ cells, 120 minutes, 37° C., no further substantial changes above) was 10 µM and the “Fold change (increases) CXCR4” value (CD34^+ cells; CXC chemokine Receptor 4, CD34+ cells, 10 μM, 120 minutes, 37° C. vs DMSO) was 7.33 fold. The “Fold change (increases) DUSP4” value (CD34^+ cells; Dual specificity protein phosphatase 4, CD34+ cells, 10 μM, 120 minutes, 37° C. vs DMSO) was 25.75 fold, the “Fold change (increases) FOSL2” value (CD34^+ cells; Fos-related antigen 2, CD34+ cells, 10 μM, 120 minutes, 37° C. vs DMSO) was 8.11 fold and the “Fold change (increases) GEM” value (CD34^+ cells; GTP-binding protein GEM, CD34+ cells, 10 μM, 120 minutes, 37° C. vs DMSO) was 28.18 fold. For the same compound, the “Fold change (increases) HAS1” value (CD34^+ cells; Hyaluronan synthase 1, CD34+ cells, 10 μM, 120 minutes, 37° C. vs DMSO) was 55.83 fold, the “Fold change (increases) NR4A2” value (CD34^+ cells; Nuclear receptor related 1 protein, CD34+ cells, 10 μM, 120 minutes, 37° C. vs DMSO) was 22.30 fold and the “Fold change (increases) REN” value (CD34^+ cells; Renin, CD34+ cells, 10 μM, 120 minutes, 37° C. vs DMSO) was 19.50 fold. The “CXCR4 RNA expression” value (CD34^+ cells; WCB or CD34+ cells, 10 μM, 2 hours, 37° C. vs DMSO or 10 μM 1 hour 4° C.) was “increase in CXCR4 RNA expression”, the “Fold change (increases) CREM” value (CD34^+ cells; cAMP-responsive element modulator, CD34+ cells, 10 μM, 120 minutes, 37° C. vs DMSO) was 12.90 fold and the “Fold change (increases) COL1A1” value (CD34^+ cells; collagen, type I, alpha 1, CD34+ cells, 10 μM, 120 minutes, 37° C. vs DMSO) was 10.50 fold. The “number of migrating CD34+ cells” value [2] was “significantly increased”.
